In brackets after ≈: the same amount, converted by molar mass. Like-named read-outs stand apart in the source and are kept apart here.
Legend:
[1] = Aqueous solubility of Compound A; assay type: physicochemical; conditions: aqueous medium, aqueous buffer; at pH=2.5
Text: In order to enable safe and effective administration of Compound A, and to elicit the required therapeutic effects, Compound A needs to be solubilized at higher concentration than its aqueous solubility.

[2] = Solubility test in various carriers (Example 1); assay type: physicochemical; conditions: thermodynamic from solid; for solubility at 2 h: read-out: Solubility after 2 h; for solubility at 24 h: read-out: Solubility after 24 h
Protocol: The solubility of ‘Compound A, H2SO4’ was studied in various media, including: • citrate buffer (pH=2; 50 mM), acetate buffer (pH=4; 50 mM) and phosphate buffer (pH=6-7.4; 67.7 mM); • cyclodextrins of the type sulfobutyl ether β-cyclodextrin (SBE-β-cyclodextrin) or hydroxypropyl β-cyclodextrin (HP-β-cyclodextrin); more precisely, the SBE-β-cyclodextrin tested is Dexsolve™ marketed by Cyclolab, while the HP-β-cyclodextrins tested are Cavitron™ W7HP7 and Cavitron™ W7HP5 marketed by Wacker; Kleptose™ HP and Kleptose™ HPB marketed by Roquette; • surfactants such as polysorbate 80 and Kolliphor™ ELP; • the mixture PEG400/ethanol/0.9% NaCl (40/10/50).
5 g of the cyclodextrin studied (Dexsolve™, Cavitron™ W7HP7, Cavitron™ W7HP5, Kleptose™ HP or Kleptose™ HPB) are weighed into a […] graduated flask. Approximately 15 mL of water are added and the whole obtained is subjected to magnetic stirring. The volume is then made up to 25 mL by the addition of water. The whole is placed under magnetic stirring for 10 minutes.
1 g of the surfactant studied is weighed into a 50 mL graduated flask. The volume is then made up to 50 mL by means of 0.9% NaCl solution. The whole is placed under magnetic stirring for 1 hour.
20 mL of PEG 400, 5 mL of ethanol and 25 mL of NaCl are taken. The whole is placed in a 100 mL Erlenmeyer flask and stirred magnetically for 30 minutes.
Approximately 340 mg of ‘Compound A, H2SO4’ are weighed into a 5 mL tube. 3 mL of the medium containing the carrier to be tested are then added. The whole is then placed under magnetic stirring for 2 hours or 24 hours. The suspension or solution so obtained is passed through a 0.2 μm filter (PVDF membrane—Millipore) before being analysed by HPLC. In addition, the presence of degradation products of Compound A was investigated in the samples stored for 72 hours at ambient temperature.

[3] = PK parameters in RS4;11 grafted female SCID mice; assay type: in vivo; conditions: one i.v. treatment; for Co / tlast / concentration at 6 h / AUC / half-life: 20% HP-β-cyclodextrin solution; for concentration at 6 h / AUC / half-life / AUC(0-t): female, SCID, mouse, blood; for concentration at 6 h: intravenous, read-out: Clast; for AUC / half-life / AUC(0-t): iv; for half-life: read-out: t1/2, z (converted); for AUC(0-t): administration to the last point
Protocol: RS4;11 cell line, obtained from ATCC, were subcutaneously injected into female SCID mice, provided by Charles River. When tumors reached the appropriate tumor volume, mice were randomized using Easy stat software. […]
In a 100 mL flask, introduce 20 g of Cavitron™ W7HP5 and add around 75 mL of a solution water/0.9% NaCl (70/30, v/v). Stir for 15 minutes at room temperature. Then, make up the solution to a volume of 100 mL by adding the previous solution water/0.9% NaCl, while maintaining magnetic stirring. Weigh the necessary amount of ‘Compound A, H2SO4’ and dissolve it with the previous 20% w/v Cavitron™ W7H5 solution. Heat the whole at 60° C. under vigorous magnetic stirring until solubilisation of the components of the mixture is complete. Measure the pH of the solution obtained. Adjust the pH to 3 by adding drop by drop, either HCl 0.1N or NaOH 0.1N, depending on the concentration of Compound A. Stir the mixture at least for 1 hour. Filtrate the obtained solution with a 0.2 μm-filter.
A 20% w/v Cavitron™ W7H5 solution containing a dose of 4 mg/mL of Compound A was prepared following this procedure. A second solution containing a dose of 1.5 mg/mL of Compound A was also prepared by diluting further the previous solution with the 20% w/v Cavitron™ W7H5 solution.

[4] = 2% Kolliphor ELP solution, aqueous with cosolvent or surfactant or cyclodextrin, carrier: 2% Kolliphor ELP
[5] = 2% Polysorbate 80 solution, aqueous with cosolvent or surfactant or cyclodextrin, carrier: 2% Polysorbate 80
[6] = aqueous buffer, carrier: Acetate buffer (pH=4; 50 mM)
[7] = aqueous buffer, carrier: Citrate buffer (pH=2; 50 mM)
[8] = aqueous buffer, carrier: Phosphate buffer (pH=6-7.4; 67.7 mM)
[9] = aqueous with cosolvent or surfactant or cyclodextrin, carrier: Cavitron W7HP5, 20% by weight cyclodextrin solution
[10] = aqueous with cosolvent or surfactant or cyclodextrin, carrier: Cavitron W7HP7, 20% by weight cyclodextrin solution
[11] = aqueous with cosolvent or surfactant or cyclodextrin, carrier: Dexsolve, 20% by weight cyclodextrin solution
[12] = aqueous with cosolvent or surfactant or cyclodextrin, carrier: PEG400/EtOH/0.9% NaCl (40/10/50)
[13] = organic solvent or mixture, carrier: Absolute ethanol
[14] = organic solvent or mixture, carrier: PEG 400

- solubility [1]: 1400 µg/mL (≈ 1.95 mM)
- solubility at 2 h [2, 4]: 2080 µg/mL (≈ 2.9 mM)
- solubility at 24 h [2, 4]: 1740 µg/mL (≈ 2.43 mM)
- solubility at 2 h [2, 5]: 2300 µg/mL (≈ 3.21 mM)
- solubility at 24 h [2, 5]: 1960 µg/mL (≈ 2.73 mM)
- solubility at 2 h [2, 6]: 200 µg/mL (≈ 0.279 mM)
- solubility at 24 h [2, 6]: 180 µg/mL (≈ 0.251 mM)
- solubility at 2 h [2, 7]: 240 µg/mL (≈ 0.335 mM)
- solubility at 24 h [2, 7]: 250 µg/mL (≈ 0.349 mM)
- solubility at 2 h [2, 8]: 210 µg/mL (≈ 0.293 mM)
- solubility at 24 h [2, 8]: 520 µg/mL (≈ 0.725 mM)
- solubility at 2 h [2, 9]: 25200 µg/mL (≈ 35.1 mM)
- solubility at 24 h [2, 9]: 30200 µg/mL (≈ 42.1 mM)
- solubility at 2 h [2, 10]: 17900 µg/mL (≈ 24.9 mM)
- solubility at 24 h [2, 10]: 21200 µg/mL (≈ 29.5 mM)
- solubility at 2 h [2, 11]: 23400 µg/mL (≈ 32.7 mM)
- solubility at 24 h [2, 11]: 23200 µg/mL (≈ 32.3 mM)
- solubility at 24 h ([2]; aqueous with cosolvent or surfactant or cyclodextrin, carrier: Kleptose HP, 20% by weight cyclodextrin solution): 25000 to 26000 µg/mL (≈ 34.9 to 36.2 mM)
- solubility at 24 h ([2]; aqueous with cosolvent or surfactant or cyclodextrin, carrier: Kleptose HPB, 20% by weight cyclodextrin solution): 30000 to 31000 µg/mL (≈ 41.8 to 43.2 mM)
- solubility at 2 h [2, 12]: 10300 µg/mL (≈ 14.4 mM)
- solubility at 24 h [2, 12]: 10800 µg/mL (≈ 15 mM)
- solubility at 2 h [2, 13]: 1060 µg/mL (≈ 1.48 mM)
- solubility at 24 h [2, 13]: 1130 µg/mL (≈ 1.58 mM)
- solubility at 2 h [2, 14]: 11700 µg/mL (≈ 16.3 mM)
- solubility at 24 h [2, 14]: 11200 µg/mL (≈ 15.6 mM)
- solubility at 2 h ([2]; carrier: Water): 2870 µg/mL (≈ 4 mM)
- solubility at 24 h ([2]; carrier: Water): 1560 µg/mL (≈ 2.17 mM)
- AUCt/Dose ([3]; 15 mg/kg): 1360 ng·h/mL per mg/kg
- Co ([3]; 15 mg/kg): 14692 ng/mL
- tlast ([3]; 15 mg/kg): 6 h
- AUCt/Dose ([3]; 40 mg/kg): 1140 ng·h/mL per mg/kg
- Co ([3]; 40 mg/kg): 23290 ng/mL
- tlast ([3]; 40 mg/kg): 6 h
- concentration at 6 h ([3]; 15 mg/kg): 58.4 ng/mL
- concentration at 6 h ([3]; 40 mg/kg): 457 ng/mL
- AUC ([3]; 15 mg/kg): 20500 ng·h/mL
- half-life ([3]; 15 mg/kg): 45.6 min
- AUC ([3]; 40 mg/kg): 46500 ng·h/mL
- half-life ([3]; 40 mg/kg): 66 min
- AUC(0-t) ([3]; 15 mg/kg): 20400 ng·h/mL
- AUC(0-t) ([3]; 40 mg/kg): 45800 ng·h/mL
SMILES: Cc1c(N(C(=O)c2cc(-c3cc(Cl)ccc3C(=O)N3Cc4ccccc4C[C@H]3CN3CCOCC3)n(C)c2C)c2ccc(O)cc2)cc(C#N)n1C [Compound A, H2SO4, 5-(5-chloro-2-{[(3S)-3-(morpholin-4-ylmethyl)-3,4-dihydroisoquinolin-2(1H)-yl]carbonyl}phenyl)-N-(5-cyano-1,2-dimethyl-1H-pyrrol-3-yl)-N-(4-hydroxyphenyl)-1,2-dimethyl-1H-pyrrole-3-carboxamide]

— US20210353633A1, “CYCLODEXTRIN-BASED FORMULATION OF A BCL-2 INHIBITOR” (LES LABORATOIRES SERVIER, priority 2018, published 2021)
